Test results as given in PMC5583328, “Probing the potential of mucus permeability to signify preterm birth risk” (Scientific Reports, 2017).
Where a SMILES comes first, the peptide text is derived from it. The star is where a group is joined. 6FAM = O=C1OC2(c3ccc(O)cc3Oc3cc(O)ccc32)c2cc(C(=O)*)ccc21

Test: Microfluidic peptide partitioning and transport through cervical mucus
Type: in vitro ADME, human
Settings: for average maximum concentration of peptide accumulated inside mucus (enrichment at mucus-buffer interface): 15-min experiment; for average maximum concentration of peptide accumulated inside mucus (enrichment at mucus-buffer interface) / concentration of the peptide at the end of the channel (450 μm): mean (SD)
Description: We quantified partitioning and transport of the reporter peptides through mucus using a previously described microfluidics device, [38]. With this setup, a continuous aqueous flow of fluorescent peptides is generated within a micron-scale channel at carefully controlled rates adjacent to a stable mucus layer. The small sample volume (5 μL) required for this system is ideally suited for the study of native mucus samples, which are typically not available in large volumes. The peptide solutes partition into the mucus layer, and their subsequent transport is monitored with fluorescence microscopy (Fig. 3a and b).
We quantified the transport of (+) and (−) charged peptides in mucus from 20 ovulating, 15 low-risk pregnant, and 9 high-risk pregnant patients (Table 2; see the table caption for specific information on cohort composition). […] Peptides at a concentration of 4 μM were introduced into the microfluidic channel in the presence of the mucus sample or in the presence of buffer. […] Concentration profiles of the fluorescent peptides were acquired through the center cross - section of the mucus channel (Fig. 3a,b, Methods).
Peptides were synthesized, purified, and identified by the Swanson Biotechnology Center at the Koch Institute at MIT (Cambridge, MA, USA). […] Peptides were purified using reverse-phase high performance liquid chromatography. […] Before use in the microfluidic device, peptides were dissolved in H7 buffer (20 mM HEPES, 20 mM NaCl, pH 7) at a final concentration of 4 μM.
Microfluidic polydimethylsiloxane devices were designed and fabricated as previously described, [38], and cured at 95 °C for 48–72 h prior to use. Devices bonded to microscope slides were mounted on an inverted epifluorescence microscope (IX-71, Olympus American, Central Valley, PA; or Zeiss Observer Z1) equipped with a 5x or 10x objective and LED light source or mercury lamp (excitation at 450–495 nm or 475 nm, respectively). All channels were washed with H7 buffer before use. The two valves were closed or opened by applying or releasing pressure with a 3-mL syringe connected to the valves via polytetrafluoroethylene tubing. All experiments were carried out at room temperature. One to two microliters of sample were injected to fill the main channel. The two valves were closed while the inlet and outlet channels were washed with H7 buffer. The top valve was opened, exposing the mucus interface. Twenty-five microliters of peptide solution were added to the reservoir of each inlet. The flow rate of the peptide solution into the inlet channel was determined by gravitational flow. […] At least two successful experimental replicates were obtained for each patient mucus sample, except for one sample of cervical mucus, for which only one measurement was obtained.
Images were analyzed using ImageJ (v1.47; Wayne Rasband, National Institutes of Health, Bethesda, MD, USA; http://imagej.nih.gov/ij) and MATLAB software.

average maximum concentration of peptide accumulated inside mucus (enrichment at mucus-buffer interface) (mucus from high-risk pregnant patients (n = 9), microfluidic channel, 4 μM FAM-labelled peptide in H7 buffer pH 7, room temperature, epifluorescence read-out) [µM]	average maximum concentration of peptide accumulated inside mucus (enrichment at mucus-buffer interface) (mucus from low-risk pregnant women (n = 15), microfluidic channel, 4 μM FAM-labelled peptide in H7 buffer pH 7, room temperature, epifluorescence read-out) [µM]	average maximum concentration of peptide accumulated inside mucus (enrichment at mucus-buffer interface) (mucus from ovulating non-pregnant women (n = 20), microfluidic channel, 4 μM FAM-labelled peptide in H7 buffer (20 mM HEPES, 20 mM NaCl, pH 7), room temperature, epifluorescence read-out) [µM]	SMILES	concentration of the peptide at the end of the channel (450 μm) (mucus from high-risk pregnant patients (n = 9), 4 μM FAM-labelled peptide in H7 buffer pH 7, room temperature, epifluorescence read-out) [nM]	retention (enrichment) of the peptide at the mucus barrier interface (mucus from high-risk pregnant patients (n = 9), microfluidic channel, 4 μM FAM-labelled peptide in H7 buffer pH 7, room temperature)	concentration of the peptide at the end of the channel (450 μm) (mucus from low-risk pregnant patients (n = 15), 4 μM FAM-labelled peptide in H7 buffer pH 7, room temperature, epifluorescence read-out) [nM]	peptide concentration gradient through the mucus layer compared with buffer (mucus from ovulating women (n = 20), microfluidic channel, 4 μM FAM-labelled peptide in H7 buffer pH 7, room temperature, epifluorescence read-out)
19.3	36.9	10.6	C[C@H](NC(=O)c1ccc2c(c1)C1(OC2=O)c2ccc(O)cc2Oc2cc(O)ccc21)C(=O)N[C@@H](CCCCN)C(=O)N[C@@H](C)C(=O)N[C@@H](CCCCN)C(=O)N[C@@H](C)C(=O)N[C@@H](CCCCN)C(=O)N[C@@H](C)C(=O)N[C@@H](CCCCN)C(=O)N[C@@H](C)C(=O)N[C@@H](CCCCN)C(=O)N[C@@H](C)C(=O)N[C@@H](CCCCN)C(=O)N[C@@H](C)C(=O)N[C@@H](CCCCN)C(=O)N[C@@H](C)C(=O)N[C@@H](CCCCN)C(=O)N[C@@H](C)C(=O)N[C@@H](CCCCN)C(=O)N[C@@H](C)C(=O)N[C@@H](CCCCN)C(N)=O [(+) peptide] (6FAM-AKAKAKAKAKAKAKAKAKAK-NH2)	–	–	–	–
–	–	–	C[C@H](NC(=O)c1ccc2c(c1)C1(OC2=O)c2ccc(O)cc2Oc2cc(O)ccc21)C(=O)N[C@@H](CCC(=O)O)C(=O)N[C@@H](C)C(=O)N[C@@H](CCC(=O)O)C(=O)N[C@@H](C)C(=O)N[C@@H](CCC(=O)O)C(=O)N[C@@H](C)C(=O)N[C@@H](CCC(=O)O)C(=O)N[C@@H](C)C(=O)N[C@@H](CCC(=O)O)C(=O)N[C@@H](C)C(=O)N[C@@H](CCC(=O)O)C(=O)N[C@@H](C)C(=O)N[C@@H](CCC(=O)O)C(=O)N[C@@H](C)C(=O)N[C@@H](CCC(=O)O)C(=O)N[C@@H](C)C(=O)N[C@@H](CCC(=O)O)C(=O)N[C@@H](C)C(=O)N[C@@H](CCC(=O)O)C(N)=O [(−) peptide] (6FAM-AEAEAEAEAEAEAEAEAEAE-NH2)	1100	not detected in any of the high-risk samples	500	nearly identical with or without mucus present
